Laboratory results from ChEMBL document CHEMBL5543099 (Eur J Med Chem, 2024).
In brackets after ≈: the same amount, converted by molar mass. Activity calls are given as the source filed them. The rule behind the calls is not given here.

Key:
Staphylococcus aureus [1] = assay: Antimicrobial activity against Staphylococcus aureus ATCC 29213 assessed as inhibition of bacterial growth incubated for 16 to 18 hrs by CLSI protocol based Muller Hinton broth assay; format: functional; details: time 16-18 hrs
[2] = Hemolytic activity in defibrinated sheep RBC incubated for 1 hrs; format: toxicity, cell-based, Ovis aries, Erythrocyte; details: defibrinated sheep red blood cells
[3] = system: Stenotrophomonas maltophilia; assay: Antimicrobial activity against Stenotrophomonas maltophilia ATCC 17808 assessed as inhibition of bacterial growth incubated for 16 to 18 hrs by CLSI protocol based Muller Hinton broth assay; format: functional; details: time 16-18 hrs
Enterococcus faecalis = assay: Antimicrobial activity against Enterococcus faecalis ATCC 29212 assessed as inhibition of bacterial growth incubated for 16 to 18 hrs by CLSI protocol based Muller Hinton broth assay; format: functional; details: time 16-18 hrs
Escherichia coli = assay: Antimicrobial activity against Escherichia coli ATCC 25922 assessed as inhibition of bacterial growth incubated for 16 to 18 hrs by CLSI protocol based Muller Hinton broth assay; format: functional; details: time 16-18 hrs
Staphylococcus aureus [4] = assay: Antibacterial activity against Staphylococcus aureus assessed as reduction in bacterial colony at 8 times of MIC incubated for 8 hrs by time-kill kinetics assay; format: functional, organism-based
[5] = Cytotoxicity against rat HBZY-1 cells assessed as cell survival rate at 64 microg/ml incubated for 48 hrs by CCK8 assay relative to control; format: toxicity, cell-based; details: at 64 µg/mL, read-out: Activity
[6] = Cytotoxicity against human SW620 cells assessed as cell survival rate at 64 microg/ml incubated for 48 hrs by CCK8 assay relative to control; format: toxicity, cell-based, SW-620; details: at 64 µg/mL, read-out: Activity
Cell membrane [7] = assay: Induction of inner membrane permeabilization in Staphylococcus aureus assessed as fluorescence intensity at 16 microg/ml incubated for 15 mins by PI staining based microplate reader; format: cell membranes; details: dose 16.0 µg/ml
Staphylococcus aureus [8] = assay: Antibacterial activity against Staphylococcus aureus assessed as inhibition of bacterial growth by measuring fold change in MIC incubated for 6 hrs in presence of 50% fetal bovine serum by CLSI protocol based Muller Hinton broth assay; format: functional
Staphylococcus aureus [9] = assay: Antibacterial activity against Staphylococcus aureus assessed as inhibition of bacterial growth by measuring fold change in MIC incubated for 6 hrs in presence of defibrinated sheep 50% plasma by CLSI protocol based Muller Hinton broth assay; format: functional
Staphylococcus aureus [10] = assay: Antibacterial activity against Staphylococcus aureus assessed as inhibition of bacterial growth by measuring fold change in MIC incubated for 6 hrs in presence of 50% fetal bovine plasma by CLSI protocol based Muller Hinton broth assay; format: functional
Cell membrane [11] = assay: Induction of Cytoplasmic membrane depolarization in Staphylococcus aureus at 16 microg/ml incubated for 15 mins by DiSC3(5) dye based fluorescence microplate reader; format: cell membranes; details: dose 16.0 µg/ml
Cell membrane [12] = assay: Induction of cell membrane damage in Escherichia coli assessed as nucleic acid leakage at 4 times of MIC incubated for 2 hrs by n ultra-micro-volume spectrophotometric analysis; format: cell membranes
Staphylococcus aureus [13] = assay: Antibacterial activity against Staphylococcus aureus assessed as inhibition of bacterial growth incubated for 6 hrs in presence of 50% fetal bovine plasma by CLSI protocol based Muller Hinton broth assay; format: functional
Staphylococcus aureus [14] = assay: Antibacterial activity against Staphylococcus aureus assessed as inhibition of bacterial growth incubated for 6 hrs in presence of defibrinated sheep 50% plasma by CLSI protocol based Muller Hinton broth assay; format: functional
Staphylococcus aureus [15] = assay: Antibacterial activity against Staphylococcus aureus assessed as inhibition of bacterial growth incubated for 6 hrs in presence of 50% fetal bovine serum by CLSI protocol based Muller Hinton broth assay; format: functional
[16] = Hemolytic activity in sheep RBC assessed as hemolysis incubated for 1 hrs by absorbance based assay; format: toxicity, cell-based, Ovis aries, Erythrocyte; details: sheep red blood cells
Staphylococcus aureus [17] = assay: Antibacterial activity against Staphylococcus aureus assessed as inhibition of bacterial growth incubated for 16 to 20 hrs by CLSI protocol based broth microdilution method; format: functional; details: time 16-20 hrs
Cell membrane [18] = assay: Induction of inner membrane permeabilization in Staphylococcus aureus assessed as increase in fluorescence intensity at 16 microg/ml incubated for 15 mins by PI staining based microplate reader; format: cell membranes; details: dose 16.0 µg/ml

| Compound | MIC (Staphylococcus aureus [1]) [µg/mL] | HC50 at 1 h [2] [µg/mL] | MIC [3] [µg/mL] | MIC (Enterococcus faecalis) [µg/mL] | MIC (Escherichia coli) [µg/mL] | further results |
| --- | --- | --- | --- | --- | --- | --- |
| CCCCCCCNC(=O)C[n+]1ccc(C(=O)N2CCN(c3cc4c(cc3F)c(=O)c(C(=O)O)cn4C3CC3)CC2)cc1.[Br-] | 4 | > 1280 | 32 | 2 | 4 |  |
| CCCNC(=O)C[n+]1ccc(C(=O)N2CCN(c3cc4c(cc3F)c(=O)c(C(=O)O)cn4C3CC3)CC2)cc1.[Br-] | 16 | > 1280 | > 64 | 16 | 16 |  |
| O=C(O)c1cn(C2CC2)c2cc(N3CCN(C(=O)c4cc[n+](Cc5ccc(-c6ccccc6)cc5)cc4)CC3)c(F)cc2c1=O.[Br-] | 4 | > 1280 | 4 | 32 | 4 |  |
| CCCCCCNC(=O)C[n+]1ccc(C(=O)N2CCN(c3cc4c(cc3F)c(=O)c(C(=O)O)cn4C3CC3)CC2)cc1.[Br-] | 8 | > 1280 | 16 | 8 | 8 |  |
| CN[C@H](CC(C)C)C(=O)N[C@H]1C(=O)N[C@@H](CC(N)=O)C(=O)N[C@H]2C(=O)N[C@H]3C(=O)N[C@H](C(=O)N[C@H](C(=O)O)c4cc(O)cc(O)c4-c4cc3ccc4O)[C@H](O)c3ccc(c(Cl)c3)Oc3cc2cc(c3O[C@@H]2O[C@H](CO)[C@@H](O)[C@H](O)[C@H]2O[C@H]2C[C@](C)(N)[C@H](O)[C@H](C)O2)Oc2ccc(cc2Cl)[C@H]1O [VANCOMYCIN] |  |  |  | 2 (≈ 1.38 µM) |  | Activity (Staphylococcus aureus [4]): Active |
| C=C[C@]1(C)C[C@@H](OC(=O)CSCCN(CC)CC)[C@]2(C)[C@H](C)CC[C@]3(CCC(=O)[C@H]32)[C@@H](C)[C@@H]1O [TIAMULIN] |  |  |  |  |  | viability at 48 h, 64 microg/ml [5]: 85.9%; viability at 48 h, 64 microg/ml [6]: 32.9% |
| O=C(O)c1cn(C2CC2)c2cc(N3CCN(C(=O)C[n+]4ccc(-c5ccccc5)cc4)CC3)c(F)cc2c1=O.[Br-] | 16 | > 1280 | 16 | 8 | 16 |  |
| CCCCCCCCCNC(=O)C[n+]1ccc(C(=O)N2CCN(c3cc4c(cc3F)c(=O)c(C(=O)O)cn4C3CC3)CC2)cc1.[Br-] | 4 | > 1280 | 16 | 2 | 4 |  |
| CC[C@H](C)[C@H](NC(=O)CN)C(=O)NCC(=O)N[C@@H](C)C(=O)N[C@H](C(=O)N[C@@H](CC(C)C)C(=O)N[C@@H](CCCCN)C(=O)N[C@H](C(=O)N[C@@H](CC(C)C)C(=O)N[C@H](C(=O)N[C@H](C(=O)NCC(=O)N[C@@H](CC(C)C)C(=O)N1CCC[C@H]1C(=O)N[C@@H](C)C(=O)N[C@@H](CC(C)C)C(=O)N[C@H](C(=O)N[C@@H](CO)C(=O)N[C@@H](Cc1c[nH]c2ccccc12)C(=O)N[C@H](C(=O)N[C@@H](CCCCN)C(=O)N[C@@H](CCCNC(=N)N)C(=O)N[C@@H](CCCCN)C(=O)N[C@@H](CCCNC(=N)N)C(=O)N[C@@H](CCC(N)=O)C(=O)N[C@@H](CCC(N)=O)C(N)=O)[C@@H](C)CC)[C@@H](C)CC)[C@@H](C)O)[C@@H](C)O)C(C)C)C(C)C [MELITTIN] |  |  | 8 (≈ 2.81 µM) | 2 (≈ 0.703 µM) |  | Flu intensity (Cell membrane [7]): 600; fold change (FC) (Staphylococcus aureus [8]): 32; viability at 48 h, 64 microg/ml [5]: 1.4%; viability at 48 h, 64 microg/ml [6]: 5.7%; fold change (FC) (Staphylococcus aureus [9]): 32; fold change (FC) (Staphylococcus aureus [10]): 32; Activity (Cell membrane [11]): Active; Activity (Cell membrane [12]): Active |
| O=C(O)c1cn(C2CC2)c2cc(N3CCN(C(=O)c4cc[n+](Cc5ccc(Cl)cc5)cc4)CC3)c(F)cc2c1=O.[Br-] | 16 | > 1280 | 8 | 8 | 8 |  |
| C[C@@H](O)[C@H]1C(=O)N2C(C(=O)O)=C(S[C@@H]3CN[C@H](C(=O)N(C)C)C3)[C@H](C)[C@H]12 [MEROPENEM] |  |  | 0.06 (≈ 0.156 µM) |  | 0.03 (≈ 0.0782 µM) |  |
| GENTAMICIN |  |  |  |  |  | Activity (Cell membrane [11]): inactive |
| CCCCNC(=O)C[n+]1ccc(C(=O)N2CCN(c3cc4c(cc3F)c(=O)c(C(=O)O)cn4C3CC3)CC2)cc1.[Br-] | 16 | > 1280 | 64 | 16 | 16 |  |
| COLISTIN |  |  |  |  |  | fold change (FC) (Staphylococcus aureus [8]): 4; MIC (Staphylococcus aureus [13]): 16 µg/mL; MIC (Staphylococcus aureus [14]): 16 µg/mL; fold change (FC) (Staphylococcus aureus [9]): 4; fold change (FC) (Staphylococcus aureus [10]): 2; MIC (Staphylococcus aureus [15]): 8 µg/mL |
| CCCCCNC(=O)C[n+]1ccc(C(=O)N2CCN(c3cc4c(cc3F)c(=O)c(C(=O)O)cn4C3CC3)CC2)cc1.[Br-] | 16 | > 1280 | 64 | 8 | 16 |  |
| CCCCCCCNC(=O)C[N+](C)(C)CCCOc1ccc(OCCC[N+](C)(C)CC(=O)NCCCCCCC)cc1.[Br-].[Br-] |  |  |  |  |  | HC50 at 1 h [16]: 1220 µg/mL; MIC (Staphylococcus aureus [17]): 0.5 µg/mL |
| CCCCCCNC(=O)C[n+]1cccc(C(=O)N2CCN(c3cc4c(cc3F)c(=O)c(C(=O)O)cn4C3CC3)CC2)c1.[Br-] | 16 | > 1280 | 64 | 32 | 16 |  |
| O=C(O)c1cn(C2CC2)c2cc(N3CCN(C(=O)c4cc[n+](Cc5ccc(F)cc5)cc4)CC3)c(F)cc2c1=O.[Br-] | 16 | > 1280 | 4 | 8 | 4 |  |
| CCCCCCCCNC(=O)C[n+]1cccc(C(=O)N2CCN(c3cc4c(cc3F)c(=O)c(C(=O)O)cn4C3CC3)CC2)c1.[Br-] | 8 | > 1280 | 16 | 8 | 8 |  |
| CCCCCCCNC(=O)C[n+]1cccc(C(=O)N2CCN(c3cc4c(cc3F)c(=O)c(C(=O)O)cn4C3CC3)CC2)c1.[Br-] | 8 | > 1280 | 64 | 8 | 8 |  |
| CCCNC(=O)C[n+]1cccc(C(=O)N2CCN(c3cc4c(cc3F)c(=O)c(C(=O)O)cn4C3CC3)CC2)c1.[Br-] | 64 | > 1280 | > 64 | 64 | 16 |  |
| CCCCNC(=O)C[n+]1cccc(C(=O)N2CCN(c3cc4c(cc3F)c(=O)c(C(=O)O)cn4C3CC3)CC2)c1.[Br-] | 64 | > 1280 | > 64 | > 64 | 32 |  |
| O=C(O)c1cn(C2CC2)c2cc(N3CCN(C(=O)c4cc[n+](Cc5ccccc5)cc4)CC3)c(F)cc2c1=O.[Br-] | 16 | > 1280 | 4 | 8 | 8 |  |
| O=C(O)c1cn(C2CC2)c2cc(N3CCN(C(=O)c4cc[n+](Cc5ccc(C(F)(F)F)cc5)cc4)CC3)c(F)cc2c1=O.[Br-] | 16 | > 1280 | 4 | 8 | 4 |  |
| CC(C)(C)c1ccc(C[n+]2ccc(C(=O)N3CCN(c4cc5c(cc4F)c(=O)c(C(=O)O)cn5C4CC4)CC3)cc2)cc1.[Br-] | 8 | > 1280 | 4 | 4 | 4 |  |
| CCCCCCCCCNC(=O)C[n+]1cccc(C(=O)N2CCN(c3cc4c(cc3F)c(=O)c(C(=O)O)cn4C3CC3)CC2)c1.[Br-] | 8 | > 1280 | 32 | 8 | 8 |  |
| C=C[C@]1(C)C[C@@H](OC(=O)CS[C@@H]2C[C@H]3CC[C@@H](C2)N3C)[C@]2(C)[C@H](C)CC[C@]3(CCC(=O)[C@H]32)[C@@H](C)[C@@H]1O [RETAPAMULIN] |  |  |  |  |  | viability at 48 h, 64 microg/ml [5]: 1.7%; viability at 48 h, 64 microg/ml [6]: 4.7% |
| O=C(O)c1cn(C2CC2)c2cc(N3CCNCC3)c(F)cc2c1=O |  |  |  |  |  | Activity (Cell membrane [18]): inactive; Activity (Cell membrane [11]): inactive |
| CCCCCNC(=O)C[n+]1cccc(C(=O)N2CCN(c3cc4c(cc3F)c(=O)c(C(=O)O)cn4C3CC3)CC2)c1.[Br-] | 32 | > 1280 | > 64 | 64 | 32 |  |
